# Laboratory results: US20190365927A1, “COMPOSITION FOR PHOTODYNAMIC THERAPY USING GENE EXPRESSING FLUORESCENT PROTEIN AND PHOTOSENSITIZER, AND PHOTODYNAMIC THERAPY METHOD USING SAME” (priority 2017, published 2019)
# Experiments:
# eGFP+ 4T1 cells = assay: In vitro PDT with rose bengal and blue laser light, MTT analysis; format: cell-based
# Description: The photo inducing death of GFP− and GFP+ cells after blue light irradiation was measured by MTT analysis in the presence or absence of rose bengal (RB). The specific experimental procedure is as follows.
# RB was diluted with DMEM containing 10% FBS to produce RB at concentrations of 6.25, 12.5, 25, 50, and 100 μM. GFP− and GFP+ cells were pre-incubated in 96-well, black, and clear bottom plates at a density of 2×10^4 cells per well. Then cells were incubated with RB for 4 hours. The addition of a fresh culture medium without photosensitizer to the wells was performed. This was used as an untreated control. Cells were washed 3 times with PBS buffer.
# In the PDT-treated group, the cell was irradiated with blue laser light (473 nm, radiation dose rate=80 mW/cm^2) for 1 to 60 seconds. The toxicity of pure RB on GFP+ and GFP− cells was measured in the dark room. After the irradiation, the fresh culture medium was added to the wells, and cells were cultured again for 24 hours. The medium was then measured by MTT assay. 150 μL of solubilizing solution and stop solution were added thereto, followed by incubation at 37° C. for 4 hours. The absorbance of the reaction solution was measured at 570 nm. Cell viability was calculated by the following equation:
# (ODtreated/ODcontrol)×100%.
# Each experiment was performed independently. Cell death was measured by LDH analysis.
# Th cells were seeded on a 24-well plate at a density of 5×10^4 per well. After the photosensitizer treatment thereto, blue light was irradiated thereto as described above. Each culture medium was prepared. For LDH analysis, LDH Cytotoxicity Assay kit (Cayman Chemical Company, Ann Arbor, Mich., USA) was used according to the producer protocol. 100 μL of the supernatant of the cultured cells was transferred from the well to a corresponding well of the new plate, and then 100 μL of the reaction solution was added to each well. The plates were incubated for 30 minutes at room temperature while executing gentle shaking thereof with an orbital shaker. The absorbance was measured at 490 nm using a plate reader.
# Lgr5+ cells = assay: cFRET PDT of colon polyps in azoxymethane/DSS-treated GFP-Lgr5 mice; format: in vivo, mouse; settings: FIG. 4E
# Description: To generate sporadic tumors, azoxymethane (10 mg/kg) was intraperitoneally injected into wild-type mice or GFP-Lgr5 mice. In one week after injection, mice were given 2% DSS as drinking water for 7 days. The next 7 days, the mice were given water normally. This DSS application cycle was repeated three times. Mice were randomly divided into 4 groups (n=5 per group).
# Another group of 5 mice as wild-type and GFP-Lgr5 mice was set to a group that was not chemically treated. RB was intravenously injected (50 nM/mL, 0.75 ml/kg) into the wild type and GFP-Lgr5 mice of each experimental group twice a week for 7 weeks. And, in 4 hours after the RB injection, blue light (2 min) irradiation was performed via an anal penetration.
# Polyp growth was monitored by endoscopy via polyp diameter measurements. After anesthesia, the mice were placed on the stage for colonoscopy. […] Each image was captured by capturing the image from the recorded video file using frame-extraction software. The tumor size was measured from the images (width×height×2). The distance-dependent magnification of the colonoscopy was calculated by imaging using a ruler in the same field.
# To compare tumor sizes before and after FR-PDT, well-isolated tumors were selected. The locomotion path used in […] was recorded in detail for each tumor. The tumor location is determined based on the structure of the surrounding tissue. […]
# [1] = test system: GFP+ and GFP− NCI-H460 cells; assay: In vitro fluorescence intensity measurement after blue light irradiation (FRET); format: cell-based, human; settings: RB 0, 5, 10, 50 uM, blue laser light 473 nm, FIG. 15
# Description: Fluorescent intensities of GFP− and GFP+ cells after blue light irradiation were measured in the presence or absence of RB. The specific experimental procedure is as follows.
# 1×10^6 cells of GFP− and GFP+ NCI-H460 cell lines as produced by the method described in the 1-1 were cultured in a 75 cm^2 cell culture dish containing RPMI-1640 medium supplemented with 10% FBS. After 12 hours, the culture medium of the cell line was replaced with RPMI-1640 medium without FBS. Then, RBs of various concentrations (0 uM, 5 uM, 10 uM, 50 uM) were added thereto. The culturing was done for 4 hours to accumulate RB in the cells. Then, the cells were obtained by centrifugation. Pellets of each cell group were suspended in 1 ml PBS. Then, the cell was irradiated with blue laser light (473 nm, radiation dose rate=80 mW/cm^2). The light-emission spectrum of each cell group was measured using a spectrofluorometer (JASCO Inc.). Measurements in each group were repeated 5 times. The FRET efficiency was calculated by the following equation: […]
# F(DA): GFP fluorescence intensity in the presence of RB, and
# F(D): GFP fluorescence intensity in the absence of RB.
smiles,measurement,setting,value
"O=C1OC2(c3cc(I)c(O)c(I)c3Oc3c2cc(I)c(O)c3I)c2c(Cl)c(Cl)c(Cl)c(Cl)c21 [RB, rose bengal]",selective cell death of eGFP+ versus eGFP− 4T1 cells,"eGFP+ 4T1 cells; blue laser light (473 nm), FIG. 1B",the cells selectively died
same,eGFP+ cells selectively killed,"eGFP+ 4T1 cells; exposed to 473 nm laser light after RB treatment, FIG. 2A",~60%
same,"cytotoxicity, eGFP+ versus eGFP− cells","eGFP+ 4T1 cells; extremely high concentrations of RB and extremely long exposure time, FIG. 2C",a similar level of cytotoxicity was observed between eGFP+ and eGFP− cells
same,"cell death percentage, eGFP+ versus eGFP− cells","eGFP+ 4T1 cells; higher RB concentration and longer exposure time, FIG. 2C",cell death percentage of eGFP+ cells was higher than that of eGFP− cells
same,polyp growth,"Lgr5+ cells; Lgr5-EGFP-IRES-creERT2 knock-in mice compared to wild-type mice, 473 nm laser, 4F",polyp growth was inhibited
same,number of polyps,Lgr5+ cells; cFRET treatment,decreased
same,emission intensity at 508 nm (emission peak of GFP),[1],decreases as the concentration of RB increases
